Results as given in patent publication US20250134870A1, “PATHWAY MODULATOR, PHARMACEUTICAL COMPOSITION HAVING SAME, USE THEREOF, AND THERAPEUTIC METHOD USING SAME” (Jiangsu Yahong Meditech Co., Ltd., priority 2021, published 2025).

Tested on: dextran sulfate sodium (DSS)-induced colitis
Assay: DSS-induced colitis in mice: body weight, DAI score, colon density (Examples 1, 3)
Type: in vivo, C57BL/6J mice
Procedure: 8-10 week old female C57BL/6J mice purchased from Charles River Laboratories were used. The mice were housed in a room at constant temperature (20+2° C.) (5 mice per cage) with a 12-hour light-dark cycle. All protocols were approved by the Institutional Animal Care and Use Committee of WuXi AppTec. These mice were adapted to the housing conditions at the animal experiment center of WuXi AppTec for at least three days prior to the experiment. […] At the experimental endpoint (see hereinafter), mice were euthanized and endpoint samples were obtained. Mice in the normal group were not given 3% DSS aqueous solution to induce colitis and were free to drink blank water. […] The animal body weight and DAI score were assessed under double-blind conditions, that is, the researchers collected the body weight data of mice and observed and scored the stool characteristics and blood stools every day, without knowing the group and dosing regimen. The DAI score was the sum of the weight loss score, stool score and bleeding score. […] The data were analyzed by analysis of variance, specifically by using the following process: using Graph Pad Prism 6.0 software to carry out post-hoc Dunnett's multiple comparison test. […] Data were expressed as mean±S.E.M. The experimental endpoint was 24 hours after administration on Day 8 for the positive drug control group and the Test group 1 #to Test group 7 #of Example 1; the experimental endpoint of the normal group and the solvent group was the same as that of the positive drug control group and Test group 1 #to Test group 7 #.

NCc1c[nH]c(=S)n1[C@H]1CCc2c(F)cc(F)cc2C1 [Nepicastat]
Body weight on Day 7, g (30 mg/kg PO QD × 8 days): 19.71 g | Body weight on Day 8, g (30 mg/kg PO QD × 8 days): 18.88 g | Body weight on Day 8/initial body weight, % (30 mg/kg PO QD × 8 days): 90.68% | DAI score on Day 8 (30 mg/kg PO QD × 8 days): 5.30 | severity of DSS-induced colitis and disease activity (Nepicastat 30, Etamicastat 100, Zamicastat 100 mg/kg PO QD × 8 days (Test groups 1#, 4#, 7#) vs solvent group): ameliorated the severity of DSS-induced colitis and reduced disease activity
